In brackets after ≈: the same amount, converted by molar mass. Activity calls are given as the source filed them. No cut-off for these calls is given here.

In experiment [1] the test system is Mycobacterium tuberculosis. In words: Antimycobacterial activity against GFP expressing Mycobacterium tuberculosis H37Ra assessed as microbial growth inhibition incubated at 37 degC for 7 days by fluorescence based assay. The experiment is classed as functional.
The test system of experiment [2] is Plasmodium falciparum. In words: Antimalarial activity against multidrug-resistant Plasmodium falciparum K1 assessed as reduction in parasite growth incubated for 24 hrs by [3H]hypoxanthine incorporation based microculture radioisotope technique based method. The experiment is classed as functional, organism-based.
Experiment [3] has as its system MCF7. In words: Antiproliferative activity against human MCF7 cells assessed as reduction in cell growth incubated at 37 degC for 3 days by resazurin microplate assay. The experiment is classed as functional, cell-based. (Resazurin is reduced to fluorescent resorufin, in cell work by metabolically active cells.)
The test system of experiment [4] is KB. In words: Antiproliferative activity against human KB cells assessed as reduction in cell growth incubated at 37 degC for 3 days by resazurin microplate assay. It counts as functional, cell-based.
Experiment [5] deals with Vero. In words: Cytotoxicity against African green monkey Vero cells assessed as reduction in cell growth incubated at 37 degC for 4 days by fluorescence based assay. To be noted: Chlorocebus sabaeus, 96 h.
[6] abbreviates: Plasmodium falciparum, K1, read-out: IC50.
The mark [7] stands for this setting: Homo sapiens, MCF7, 72 h, read-out: IC50.
Setting [8] is: Homo sapiens, KB, 72 h, read-out: IC50.

In the case of `NNC(=O)c1ccncc1` [ISONIAZID], the MIC – broadly, the least concentration at which growth counts as inhibited – in experiment [1] (168 h) was 0.094 µg/mL (≈ 0.685 µM).

`C[C@H]1[C@@H](O)O[C@@H]2O[C@@]3(C)CC[C@H]4[C@H](C)CC[C@@H]1[C@@]24OO3` [ARTENIMOL]: the IC50 (in general, the concentration that gives 50% inhibition) in experiment [2] (setting [6]) was 0.00126 µM.

Consider `CC/C(=C(\c1ccccc1)c1ccc(OCCN(C)C)cc1)c1ccccc1` [TAMOXIFEN], for which the IC50 in experiment [3] (setting [7]) is 18.7 µM.

Take `C=C(C)[C@@]12O[C@@H]1[C@@]1(C)C(=C[C@@H]2O)CC[C@@H](O)[C@@H]1C`: the concentration for half-maximal inhibition (IC50) result in experiment [4] (kb) was “Not Active”; in experiment [5], 24.1 µM; in experiment [3] (mcf7), “Not Active”; in experiment [2], “Not Active”. Also, in experiment [1], the MIC entry was “inactive”.

As for `CC[C@@H](CO)NCCN[C@@H](CC)CO` [ETHAMBUTOL], the MIC in experiment [1] (168 h) was 0.983 µg/mL (≈ 4.81 µM).

Take `CO[C@H]1/C=C/O[C@@]2(C)Oc3c(C)c(O)c4c(O)c(c(/C=N/N5CCN(C)CC5)c(O)c4c3C2=O)NC(=O)/C(C)=C\C=C\[C@H](C)[C@H](O)[C@@H](C)[C@@H](O)[C@@H](C)[C@H](OC(C)=O)[C@@H]1C` [RIFAMPIN]: in experiment [1] (168 h), the MIC was found to be 0.025 µg/mL (≈ 0.0304 µM).

For `Cc1c2ccncc2c(C)c2c1[nH]c1ccccc12` [ELLIPTECINE], the IC50 stood at 1.98 µM in experiment [4] (setting [8]) and 3.8 µM in experiment [5].

For `C=C(C)[C@@]12O[C@@H]1[C@@]1(C)C(=CC2=O)CC[C@@H](OC(=O)Cc2ccc(O)c(Cl)c2)[C@@H]1C`, the IC50 in experiment [4] (setting [8]) amounted to 57 µM; in experiment [5], 21.1 µM; in experiment [3] (setting [7]) it was 39.6 µM; in experiment [2] (setting [6]) it was 3.45 µM. For the same molecule, the minimal inhibitory concentration (MIC) in experiment [1] (168 h) stood at 50 µg/mL (≈ 120 µM).

In the case of `COc1cccc2c1C(=O)c1c(O)c3c(c(O)c1C2=O)C[C@@](O)(C(=O)CO)C[C@@H]3O[C@H]1C[C@H](N)[C@H](O)[C@H](C)O1` [DOXORUBICIN], the IC50 in experiment [4] (setting [8]) was 0.91 µM; in experiment [3] (setting [7]), 11.5 µM.

`C=C(C)[C@@]12O[C@@H]1[C@@]1(C)C(=CC2=O)CC[C@@H](OC(C)=O)[C@@H]1C`: the IC50 was 35.7 µM in experiment [4] (setting [8]), 7.51 µM in experiment [5], “Not Active” in experiment [3] (mcf7) and 4.55 µM in experiment [2] (setting [6]). Also, the MIC result in experiment [1] was “inactive”.

Take `C=C(C)[C@@]12O[C@@H]1[C@@]1(C)C(=CC2=O)CC[C@@H](O)[C@@H]1C`: the IC50 in experiment [4] (setting [8]) was 17.8 µM; in experiment [5], 4.23 µM; in experiment [3] (mcf7), “Not Active”; in experiment [2] (setting [6]), 1.53 µM. The MIC result in experiment [1] is “inactive”.

For the molecule `CC1COc2c(N3CCN(C)CC3)c(F)cc3c(=O)c(C(=O)O)cn1c23` (stereo unspecified) [OFLOXACIN], the MIC in experiment [1] (168 h) was determined as 0.391 µg/mL (≈ 1.08 µM).

Take `C=C(C)[C@@H]1C[C@@]2(C)C(=CC1=O)CC[C@@H](O)[C@@H]2C`: the IC50 in experiment [4] (setting [8]) was 186 µM; in experiment [5] it was 44.5 µM; in experiment [3] (mcf7) it was “Not Active”; in experiment [2] (setting [6]) it was 39.3 µM. In addition, the MIC result in experiment [1] was “inactive”.

For `C=C(CO)[C@@]12O[C@@H]1[C@@]1(C)C(=CC2=O)CC[C@@H](O)[C@@H]1C`, the IC50 was 31.8 µM in experiment [4] (setting [8]), 6.05 µM in experiment [5], “Not Active” in experiment [3] (mcf7) and 5.41 µM in experiment [2] (setting [6]). Further, the MIC result in experiment [1] was “inactive”.

Take `C=C(CO)[C@@H]1C[C@@]2(C)C(=CC1=O)CC[C@@H](O)[C@@H]2C`: the IC50 result in experiment [4] (kb) was “Not Active”; in experiment [5], 56.2 µM; in experiment [3] (mcf7), “Not Active”; in experiment [2], “Not Active”. The MIC result in experiment [1] was “inactive”.

As to `CN[C@@H]1[C@H](O[C@H]2[C@H](O[C@H]3[C@H](O)[C@@H](O)[C@H](N=C(N)N)[C@@H](O)[C@@H]3N=C(N)N)O[C@@H](C)[C@]2(O)C=O)O[C@@H](CO)[C@H](O)[C@H]1O` [STREPTOMYCIN], the MIC in experiment [1] (168 h) is 0.625 µg/mL (≈ 1.07 µM).

As for `C=C(C)C1=C[C@@]2(C)C(=CC1=O)CC[C@@H](O)[C@@H]2C`, the half-maximal inhibitory concentration (IC50) result was “Not Active” in experiment [4] (kb), 34.6 µM in experiment [5], “Not Active” in experiment [3] (mcf7) and 15.7 µM in experiment [2] (setting [6]). Moreover, the MIC entry in experiment [1] is “inactive”.

The values above are taken from ChEMBL document CHEMBL3580576, “Eremophilane Sesquiterpenes and Diphenyl Thioethers from the Soil Fungus Penicillium copticola PSU-RSPG138” (J Nat Prod, 2015).
